In patent US20230121086A1, “RORgT INHIBITOR, PREPARATION METHOD THEREOF AND USE THEREOF” (SUNSHINE LAKE PHARMA CO., LTD., priority 2020, published 2023):
Marks after values point to notes of the source that are not given here.

Key:
[1] = system: rat liver microsomes; experiment: Stability in rat liver microsomes; format: in vitro ADME; conditions: 0.5 mg protein/mL, 1.5 μM compound, 37° C., NADPH
[2] = Pharmacokinetic evaluation in ICR mice; format: in vivo; conditions: mouse, plasma, po; for AUC(0-t) / Cmax / half-life: 5 mg/kg; for bioavailability: p.o. 5 mg/kg vs i.v. 1 mg/kg, read-out: Oral bioavailability (F)
[3] = target: T1, RORγt (Homo sapiens, UniProt P51449); experiment: Fluorescence resonance energy transfer (FRET) test, inhibitory activity of RORγt; format: biochemical; conditions: FRET, B-RORγt LBD / Biotin-SRC1; read-out: IC50
T1 construct: […]
T1 sequence (P51449 269-508 limits assumed): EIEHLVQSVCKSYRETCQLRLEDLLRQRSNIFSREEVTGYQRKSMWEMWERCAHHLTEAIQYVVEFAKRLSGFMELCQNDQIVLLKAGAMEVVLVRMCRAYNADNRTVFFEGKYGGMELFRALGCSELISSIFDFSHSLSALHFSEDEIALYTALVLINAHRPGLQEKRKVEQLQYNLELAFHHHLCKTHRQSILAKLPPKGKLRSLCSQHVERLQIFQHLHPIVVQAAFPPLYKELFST

[4] = system: inflammatory factor IL-17; experiment: IMQ-induced mouse psoriasis model, IL-17 in the ear; format: in vivo, c57bl/6 mice; conditions: for Inhibition rate (IL-17 in the ear) / IL-17 Concentration (pg/μg protein): 90 mg/kg; for IL-17 Concentration (pg/μg protein): ear homogenate supernatant, model group 29.78, normal group 0.00; for Effect on the secretion of IL-17 in the ear of mice compared with the model group: P<0.05
[5] = system: inflammatory factor IL-17; experiment: LPS-induced mouse blood inflammatory factor IL-17 model; format: in vivo, BALB/c mice
[6] = system: IMQ-induced mouse psoriasis model; experiment: IMQ-induced mouse psoriasis model, ear weight; format: in vivo, c57bl/6 mice; conditions: for Effect on the ear weight of mice compared with the model group: P<0.05
[7] = Stability in human liver microsomes; format: in vitro ADME; conditions: for half-life at 1.5 μM: pH 7.4, 0.5 mg protein/mL, 1.5 μM compound, 37° C., NADPH, read-out: Human Half-life t1/2; for CLint scaled at 1.5 μM: pH 7.4, intrinsic hepatic clearance inferred from microsomal incubation, read-out: Human Clearance rate
[8] = Stability in rat liver microsomes; format: in vitro ADME; conditions: rat, liver microsomes, pH 7.4
[9] = Table 7, 30 mg/kg, plasma 4 hours after LPS, model group 174.69
[10] = 90 mg/kg, oral gavage, 10 days modeling, model group 28.12, normal group 13.03
[11] = Table 8, 15 mg/kg, plasma 4 hours after LPS, model group 81.33

For `CCS(=O)(=O)c1ccc([C@H](CC#N)NC(=O)c2ccc(N3CC(Oc4ccc(OC(F)(F)F)cc4)C[C@H]3COC(F)F)cc2)cc1` (stereo in doubt) [Example 64, N-((S)-2-cyano-1-(4-(ethylsulfonyl)phenyl)ethyl)-4-((2S,4S)-2-((difluoromethoxy)methyl)-4-(4-(trifluoromethoxy)phenoxy)pyrrolidin-1-yl)benzamide], the “Rat Half-life t1/2 (min)” value [1] was “Not metabolized”, the AUC(0-t) [2] was 47.2 µM·h and the Cmax [2] was 3.33 µM. For the same compound, the half-life [2] was 13.2 h, the bioavailability [2] was 91% and the IC50 [3] was 11 nM. The “Inhibition rate (IL-17 in the ear)” value [4] was 72.47%, the “IL-17 Concentration (pg/μg protein)” value [4] was 8.20 ** pg/μg protein and the “Effect on the secretion of IL-17 in the ear of mice compared with the model group” value [4] was “significantly reduce”. The “Effect on LPS-induced mouse blood inflammatory factor IL-17” value [5] was “significantly reduce”, the Inhibition rate % ([5]; Table 7, 30 mg/kg) was 65% and the “IL-17 (pg/ml)” value [5, 9] was 58.48 ** pg/ml. For the same compound, the “Inhibition rate % (ear weight)” value ([6]; 90 mg/kg, oral gavage) was 22%, the “Average ear weight (mg)” value [6, 10] was 24.84* mg and the “Effect on the ear weight of mice compared with the model group” value [6] was “significantly reduce”.
For `CCS(=O)(=O)c1ccc([C@H](CC#N)NC(=O)c2ccc(N3CC(Oc4ccc(C(F)(F)F)cn4)C[C@H]3COC(F)F)cc2)cc1` (stereo in doubt) [Example 65, N-((S)-2-cyano-1-(4-(ethylsulfonyl)phenyl)ethyl)-4-((2S,4S)-2-((difluoromethoxy)methyl)-4-((5-(trifluoromethyl)pyridine-2-yl)oxy)pyrrolidin-1-yl)benzamide], the “Rat Half-life t1/2 (min)” value [1] was “Not metabolized”, the AUC(0-t) [2] was 78 µM·h and the Cmax [2] was 7 µM. It also gave a half-life [2] of 7.9 h, a bioavailability [2] of 82% and a half-life at 1.5 μM [7] of 1.34 h. For the same compound, the CLint scaled at 1.5 μM [7] was 21.6 mL/min/kg, the “Effect on LPS-induced mouse blood inflammatory factor IL-17” value [5] was “significantly reduce” and the Inhibition rate % ([5]; Table 7, 30 mg/kg) was 63%. For the same compound, the “IL-17 (pg/ml)” value [5, 9] was 61.71 ** pg/ml.
With `CCS(=O)(=O)c1ccc([C@H](CC#N)NC(=O)c2ccc(N3C[C@@H](Oc4ccc(OC(F)F)cc4)C[C@H]3COC(F)F)cc2)cc1` [Example 22, N-((S)-2-cyano-1-(4-(ethylsulfonyl)phenyl)ethyl)-4-((2S,4S)-2-((difluoromethoxy)methyl)-4-(4-(difluoromethoxy)phenoxy)pyrrolidin-1-yl)benzamide] the “Rat Half-life t1/2 (min)” value [1] was “Not metabolized”, the AUC(0-t) [2] was 37 µM·h and the Cmax [2] was 4.8 µM. For the same compound, the half-life [2] was 3.6 h, the bioavailability [2] was 80% and the half-life at 1.5 μM [7] was 3.98 h. For the same compound, the CLint scaled at 1.5 μM [7] was 7.3 mL/min/kg, the IC50 [3] was 9 nM and the “Inhibition rate (IL-17 in the ear)” value [4] was 40.08%. For the same compound, the “IL-17 Concentration (pg/μg protein)” value [4] was 17.85 * pg/μg protein, the “Effect on the secretion of IL-17 in the ear of mice compared with the model group” value [4] was “significantly reduce” and the “Effect on LPS-induced mouse blood inflammatory factor IL-17” value [5] was “a certain tendency to inhibit”. For the same compound, the Inhibition rate % ([5]; Table 8, 15 mg/kg) was 10.55%, the “IL-17” value [5, 11] was 72.12 pg/mL and the “Inhibition rate % (ear weight)” value ([6]; 90 mg/kg, oral gavage) was 2%. For the same compound, the “Average ear weight” value [6, 10] was 28.12 mg.
`CCS(=O)(=O)c1ccc([C@H](CC#N)NC(=O)c2ccc(N3C[C@@H](Oc4ccc(C(F)(F)F)cc4)C[C@H]3COC(F)F)cc2)cc1` [Example 47, N—((S)-2-cyano-1-(4-(ethylsulfonyl)phenyl)ethyl)-4-((2S,4S)-2-((difluoromethoxy)methyl)-4-(4-(trifluoromethyl)phenoxy)pyrrolidin-1-yl)benzamide] gave a half-life at 1.5 μM ([8]; 0.5 mg protein/mL, 1.5 μM compound, 37° C., NADPH, read-out: Rat Half-life t1/2) of 22.4 h, a CLint scaled at 1.5 μM ([8]; intrinsic hepatic clearance inferred from microsomal incubation, read-out: Rat Clearance rate) of 1.9 mL/min/kg and an AUC(0-t) [2] of 23.5 µM·h. For the same compound, the Cmax [2] was 2.4 µM, the half-life [2] was 11.1 h and the bioavailability [2] was 66%. The half-life at 1.5 μM [7] was 3.5 h, the CLint scaled at 1.5 μM [7] was 8.3 mL/min/kg and the IC50 [3] was 10 nM. The “Inhibition rate (IL-17 in the ear)” value [4] was 55.38%, the “IL-17 Concentration (pg/μg protein)” value [4] was 13.29 ** pg/μg protein and the “Effect on the secretion of IL-17 in the ear of mice compared with the model group” value [4] was “significantly reduce”. For the same compound, the “Effect on LPS-induced mouse blood inflammatory factor IL-17” value [5] was “significantly reduce”, the Inhibition rate % ([5]; Table 6, 15 mg/kg) was 25.22% and the “IL-17 (pg/ml)” value ([5]; Table 6, 15 mg/kg, plasma 4 hours after LPS, model group 141.35) was 104.98 * pg/ml. For the same compound, the Inhibition rate % ([5]; Table 7, 30 mg/kg) was 51%, the “IL-17 (pg/ml)” value [5, 9] was 83.18 * pg/ml and the Inhibition rate % ([5]; Table 8, 15 mg/kg) was 28.21%. For the same compound, the “IL-17 (pg/ml)” value [5, 11] was 56.69 ** pg/ml, the “Inhibition rate % (ear weight)” value ([6]; 90 mg/kg, oral gavage) was 19% and the “Average ear weight (mg)” value [6, 10] was 25.20* mg. The “Effect on the ear weight of mice compared with the model group” value [6] was “significantly reduce”.
For `CCS(=O)(=O)c1ccc([C@H](COC(N)=O)NC(=O)c2ccc(N3C[C@@H](Oc4ccc(Cl)cn4)C[C@H]3COC(F)F)nc2)cc1` [Example 183, (R)-2-(6-((2S,4S)-4-((5-chloropyridin-2-yl)oxy)-2-((difluoromethoxy)methyl)pyrrolidin-1-yl)nicotinamido)-2-(4-(ethylsulfonyl)phenyl)ethyl carbamate], the IC50 [3] was 10 nM.
“N—((S)-2-cyano-1-(4-(ethylsulfonyl)phenyl)ethyl)-4-((2S,4S)-2-((difluoromethoxy)methyl)-4-(4-(4-fluoro-1H-pyrazol-1-yl)phenoxy)pyrrolidin-1-yl) benzamide [Example 161]” showed an IC50 [3] of 10.4 nM.
In the case of “N—((S)-2-cyano-1-(4-(ethylsulfonyl)phenyl)ethyl)-4-((2S,5R)-5-(2,2-difluorobenzo[1,3]dioxol yl)-2-((difluoromethoxy)methyl)piperidin-1-yl)benzamide [Example 112-2]”, the IC50 [3] is reported as 13 nM.
